The target of assay [1] is T1, full-length human His-tagged BTK (Homo sapiens, UniProt Q06187).
T1 construct: 6 nM of full-length human His-tagged BTK (Life Technologies cat # PV3587); His; purchased Life Technologies PV3587
The experiment in a line: BTK HTRF assay (Cisbio KinEASE-TK). The conditions noted are these: 6 nM BTK, 30 uM ATP, 15 min preincubation. It is filed as biochemical. As to the method:
Description of Biological Properties BTK Assay
An HTRF assay (Cisbio KinEASE-TK cat #62TK0PEC) was performed to quantitate the ability of test compounds to inhibit BTK mediated phosphorylation of substrate. Assays were assembled in 384 well plates where 6 nM of full-length human His-tagged BTK (Life Technologies cat # PV3587) and test compound at varying concentrations were preincubated for 15 minutes at 28° C. Then, 1 uM of TK substrate-biotin and 30 uM ATP were added and incubated for an additional 30 minutes at 28° C. Phospohrylation was detected by adding 62.5 nM Streptavidin-XL665 and TK-Antibody Cryptate diluted 1:100 in HTRF detection buffer (Cisbio cat #62SDBRDF) and incubated for 60 minutes at RT. The plate was read on an Envision plate reader and the fluorescence is measured at 620 nm (cryptate) and 665 nm (XL665). A ratio is calculated (665/620) and converted to POC relative to control and blank wells.
50 mM HEPES (Invitrogen #15630), 0.01% Brij-35 (sigma #B4184), 10 mM MgCl2 (Sigma M1028), 1 mM EGTA (Ambion AM9262) and 100 uM sodium orthovanedate (Sigma S6508), 1 mM DTT (Sigma D5545) and 10 nM supplement enzyme buffer (Cisbio cat#61SEBALB).
(In TR-FRET formats the signal depends on donor and acceptor labels being close together.)

For assay [2], the system named is BTK activity measured by IL-6 production in primary CD19+ cells. Description: Inhibition of IL-6 production in B cells co-stimulated with ODN 2006 and anti-hIgD. In kind it is cell-based. The conditions noted are these: B-cell, anti-human IgD + ODN 2006, 18-24 hours. As to the method:
(§1) The compounds described herein show a range of selectivities against EGFR as measured in cellular assays (BTK activity measured by IL-6 production in primary CD19^+ cells; EGFR activity measured by EGFR phosphorylation in A431 cells).
Inhibition of IL-6 Production in B Cells Co-Stimulated with ODN 2006 and Anti-hIgD
Primary CD19+ B cells (AllCells # PB010F) are thawed and plated in RPMI containing 10% HI FBS in a 384-well tissue cultured plate at 20,000 cells/well. The cells are treated with test compound (0.5% DMSO final concentration) and incubated for 1 hour at 37° C., 5% CO2. Cells are then stimulated with 5 ug/mL Goat F(ab′)2 anti-human IgD (SouthernBiotech #2032) and 2 uM ODN 2006 (InvivoGen # tlrl-2006) and incubated for 18-24 hours at 37° C., 5% CO2. IL-6 in the supernatant is measured using Meso Scale Discovery kit # K211AKB-6.

For assay [3], the system named is EGFR phosphorylation in A431 cells. Description: Inhibition of EGFR autophosphorylation in A431 human epithelial cells stimulated with EGF. The conditions noted are these: A-431, 16 hours compound, EGF 60 ng/mL 10 minutes, read-out: A431 p-EGFR IC50. It is filed as cell-based.
Description: as §1
Inhibition of EGFR Autophosphorylation in A431 Human Epithelial Cells Stimulated with Epithelial Growth Factor
A431 cells (ATCC # CRL-1555 FZ) are thawed and plated in DMEM containing 10% FBS in a 384-well tissue culture treated plate at 15,000 cells/well. After incubating for 24 hours at 37° C., 5% CO2, the cells are treated with test compound (1% DMSO final concentration) and incubated for 16 hours at 37° C., 5% CO2. EGF (Millipore, 01-107) is added at a final concentration of 60 ng/mL and incubated for 10 minutes. The medium is removed, the cells are lysed, and phospho EGFR is measured (Meso Scale Diagnostics, N31CB-1).

T1 sequence (Q06187 whole entry): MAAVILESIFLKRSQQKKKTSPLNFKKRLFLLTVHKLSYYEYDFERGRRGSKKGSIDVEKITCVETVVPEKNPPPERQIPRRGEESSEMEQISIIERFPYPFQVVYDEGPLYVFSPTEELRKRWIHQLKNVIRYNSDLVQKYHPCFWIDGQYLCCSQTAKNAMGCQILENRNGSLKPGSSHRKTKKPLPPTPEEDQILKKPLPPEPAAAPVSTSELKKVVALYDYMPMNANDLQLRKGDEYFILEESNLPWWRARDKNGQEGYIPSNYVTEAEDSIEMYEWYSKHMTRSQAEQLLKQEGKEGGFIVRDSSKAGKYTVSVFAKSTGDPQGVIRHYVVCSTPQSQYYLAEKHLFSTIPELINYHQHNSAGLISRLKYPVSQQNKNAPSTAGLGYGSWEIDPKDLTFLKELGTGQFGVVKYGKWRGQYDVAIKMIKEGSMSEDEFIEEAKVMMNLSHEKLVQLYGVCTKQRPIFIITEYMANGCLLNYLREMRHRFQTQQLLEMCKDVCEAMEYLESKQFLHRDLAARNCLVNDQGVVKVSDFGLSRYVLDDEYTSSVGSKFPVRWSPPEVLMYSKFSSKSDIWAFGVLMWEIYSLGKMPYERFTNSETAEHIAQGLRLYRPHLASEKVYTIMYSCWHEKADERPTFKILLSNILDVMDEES

For `C=CC(=O)N1CC2(CC(n3nc(-c4ccc(C(C)OCC)cc4)c(C(N)=O)c3N)C2)C1` (stereo not shown) [Example 1], in assay [1], inhibition was half-maximal at 100 nM (IC50).
On to `C=CC(=O)N1CC2(CC(n3nc(-c4ccc(C(C)OC)cc4)c(C(N)=O)c3N)C2)C1` (stereo not shown) [Example 2], for which the half-maximal inhibitory concentration (IC50) (in general, the concentration that inhibits the measured activity by half) in assay [1] was found to be 200 nM.
In turn, `C=CC(=O)N1CC2(CC(n3nc(-c4ccc(COC)cc4)c(C(N)=O)c3N)C2)C1` [Example 3] displayed an IC50 in assay [1] of 94 nM.
`C=CC(=O)N1CC[C@]2(C1)C[C@H](n1nc(-c3ccc(COC)cc3)c(C(N)=O)c1N)C2` [Example 4]: the IC50 in assay [1] came out at 26 nM.
With `CC#CC(=O)N1CC[C@]2(C1)C[C@H](n1nc(-c3ccc(COC)cc3)c(C(N)=O)c1N)C2` [Example 5], the figures for the IC50 in assay [2], in assay [3] and in assay [1] were 2.4 nM, 6100 nM and 2 nM, respectively.
On to `C=CC(=O)N1CCC[C@]2(C1)C[C@@H](n1nc(-c3ccc(COC)cc3)c(C(N)=O)c1N)C2` [Example 6], for which the 50% inhibitory concentration (IC50) in assay [1] stood at 460 nM.
`C=CC(=O)N1CCC[C@]2(C1)C[C@H](n1nc(-c3ccc(COC)cc3)c(C(N)=O)c1N)C2` [Example 7]: in assay [1], the midpoint of inhibition, the IC50, lay at 450 nM.
On the same count and under the same terms, under `CC#CC(=O)N1CCC[C@]2(C1)C[C@@H](n1nc(-c3ccc(COC)cc3)c(C(N)=O)c1N)C2` [Example 8] stands 160 nM.
For the compound `CC#CC(=O)N1CCC[C@]2(C1)C[C@H](n1nc(-c3ccc(COC)cc3)c(C(N)=O)c1N)C2` [Example 9], the half-maximal inhibitory concentration (IC50) is 6.3 nM in assay [2], more than 10000 nM in assay [3] and 8.2 nM in assay [1].
Regarding `CC#CC(=O)N1CC[C@]2(C1)C[C@H](n1nc(-c3ccc(C(C)OC)cc3)c(C(N)=O)c1N)C2` (stereo partly shown) [Example 10], the IC50 in assay [1] amounted to 9.3 nM.
In the case of `CC#CC(=O)N1CC[C@]2(C1)C[C@H](n1nc(-c3ccc(COCC)cc3)c(C(N)=O)c1N)C2` [Example 11], the IC50 in assay [1] was determined as 2.2 nM.
In turn, `CCC#CC(=O)N1CC[C@]2(C1)C[C@H](n1nc(-c3ccc(COC)cc3)c(C(N)=O)c1N)C2` [Example 12] came in with an IC50 in assay [1] of 0.9 nM.
Regarding `COCc1ccc(-c2nn([C@H]3C[C@@]4(CCN(C(=O)C#CC5CC5)C4)C3)c(N)c2C(N)=O)cc1` [Example 13], in assay [1], the IC50 was found to be 0.7 nM.
As to `COCc1ccc(-c2nn([C@H]3C[C@@]4(CCN(C(=O)C#CC5CCC5)C4)C3)c(N)c2C(N)=O)cc1` [Example 14], in assay [1], the IC50 stood at 0.6 nM.
The same measure, in the same setting: under `CC#CC(=O)N1CC[C@]2(C1)C[C@H](n1nc(-c3ccc(C(C)OCC)cc3)c(C(N)=O)c1N)C2` (stereo partly shown) [Example 15] stands 3.6 nM; under `CCC#CC(=O)N1CC[C@]2(C1)C[C@H](n1nc(-c3ccc(C(C)OCC)cc3)c(C(N)=O)c1N)C2` (stereo partly shown) [Example 16], 1.8 nM.
On the same count and under the same terms, the value for `CCOC(C)c1ccc(-c2nn([C@H]3C[C@@]4(CCN(C(=O)C#CC5CC5)C4)C3)c(N)c2C(N)=O)cc1` (stereo partly shown) [Example 17] was 1.2 nM.
`C=CC(=O)N1CC[C@]2(C1)C[C@H](n1nc(-c3ccc(C(O)C(C)C)cc3)c(C(N)=O)c1N)C2` (stereo partly shown) [Example 18] displayed an IC50 in assay [1] of 150 nM.
With `CC#CC(=O)N1CC[C@]2(C1)C[C@H](n1nc(-c3ccc(C(O)C(C)C)cc3)c(C(N)=O)c1N)C2` (stereo partly shown) [Example 19], the half-inhibitory concentration (IC50) is 5.1 nM in assay [2], 3000 nM in assay [3] and 4.5 nM in assay [1].
In the case of `C=CC(=O)N1CC[C@]2(C1)C[C@H](n1nc(-c3ccc(CO)cc3)c(C(N)=O)c1N)C2` [Example 20], in assay [1], the midpoint of inhibition, the IC50, lay at 66 nM.
With `CC#CC(=O)N1CC[C@]2(C1)C[C@H](n1nc(-c3ccc(CO)cc3)c(C(N)=O)c1N)C2` [Example 21], 2.5 nM corresponded to half-maximal inhibition in assay [1] (IC50).
With `CC#CC(=O)N1CCC[C@]2(C1)C[C@H](n1nc(-c3ccc(C(O)C4CC4)cc3)c(C(N)=O)c1N)C2` (stereo partly shown) [Example 22], half-maximal inhibition in assay [1] (IC50) was put at 59 nM.
Consider `C=CC(=O)N1CCC[C@]2(C1)C[C@@H](n1nc(-c3ccc(C(O)C4CC4)cc3)c(C(N)=O)c1N)C2` (stereo partly shown) [Example 23], for which the IC50 in assay [1] was determined as 68 nM.
The same measure, in the same setting: the value for `C=CC(=O)N1CC2(CC(n3nc(-c4ccc(C5(CO)CC5)cc4)c(C(N)=O)c3N)C2)C1` [Example 24] was 240 nM.
For the compound `CC#CC(=O)N1CC[C@]2(C1)C[C@H](n1nc(-c3ccc(CCO)cc3)c(C(N)=O)c1N)C2` [Example 25], the IC50 was 7 nM in assay [2], more than 10000 nM in assay [3] and 1.4 nM in assay [1].
`CC#CC(=O)N1CC[C@]2(C1)C[C@H](n1nc(-c3ccc(C4(CO)CC4)cc3)c(C(N)=O)c1N)C2` [Example 26] had a concentration for half-maximal inhibition (IC50) in assay [1] of 2.4 nM.
For the compound `CC#CC(=O)N1CC[C@]2(C1)C[C@H](n1nc(-c3ccc(S(C)(=O)=O)cc3)c(C(N)=O)c1N)C2` [Example 27], the IC50 in assay [2] was 93 nM; in assay [3], more than 10000 nM; in assay [1] it was 12 nM.
